Experimental data from patent US6527759B1, “Ultrasound assembly for use with light activated drugs” (Ekos Corporation, priority 1995, dated 2003).

Assays:
[1] = Relative efficiency of bile salts as co-solubilizers for SnEt2 in MCT oil, egg phospholipids and ethanol (Example 6); format: physicochemical; details: egg phospholipids, ethanol
Experimental: (§1) Several emulsions are prepared as described above. In 5 ml glass tubes, medium chain length oil known as MCT oil (Miglyol 801, Hüls America, Piscataway, N.J.) is combined with 10 mg/gm SnEt2 plus excipients as described above. Certain emulsions also included additional excipients in the following concentrations: ethanol at […]; egg phospholipids at 75 mg/gm oil; and sodium cholate at 10 mg/gm oil. After incubating for 30 minutes at 55° C., the tubes stand overnight at room temperature (19°-22° C.). The tubes arc centrifuged to remove bulk precipitates, and supernatants are filtered through 0.45 μm nylon membrane to remove any undissolved drug. Aliquots of filtrate are then diluted in chloroform:isopropyl alcohol (1:1) for spectrophotometric determination of drug concentration (absorbance at 662 nm). Reference standards are prepared with known concentrations of SnEt2 in the same solvent.
This example illustrates relative efficiencies of several bile salts. Mixtures of MCT oil, egg phospholipids, ethanol, and SnEt2 are incubated with different bile salts, all at 4.6 mM^1, under the same conditions described above. […] Cholic acid lacks solubilizing action in the oil.

[2] = Drug solubility in oil: SnEt2 in MCT oil with excipient combinations (Example 5); format: physicochemical; details: emulsion with excipients vs MCT oil alone
Experimental: as §1
The concentration of SnEt2 in each of the emulsions is illustrated in Table 2. As illustrated, the concentration of SnEt2 in the emulsion can be more than ten times the concentration in MCT oil alone.

SnEt2 Concentration ([1]; bile compound: Cholic acid, 4.6 mM): 1.33 mg/gm oil
SnEt2 Concentration ([1]; bile compound: Na Tauracholate, 4.6 mM): 1.13 mg/gm oil
SnEt2 Concentration ([1]; bile compound: Na cholate, 4.6 mM): 3.70 mg/gm oil
SnEt2 Concentration ([1]; bile compound: Na deoxycholate, 4.6 mM): 2.31 mg/gm oil
SnEt2 Concentration ([1]; bile compound: Na glycocholate, 4.6 mM): 2.22 mg/gm oil
SnEt2 Concentration ([1]; bile compound: None): 1.26 mg/gm oil
concentration of SnEt2 in the emulsion relative to the concentration in MCT oil alone [2]: more than ten
Structure (SMILES): CCOC(=O)C1=Cc2c3nc(cc4nc(cc5[n-]c(cc6[n-]c2c(C)c6CC)c(C)c5CC)C(C)=C4CC)[C@@H](C)[C@]13CC.[Cl-].[Cl-].[Sn] (racemic) [SnEt2, tin ethyl etiopurpurin]
